Entries after “also recorded” stand apart in the source; their conditions may differ. Where no end group is shown, it is not given here.
Columns and labels:
Format in all cases: cell-based
human Ntera nerve cells = experiment: NTera nerve fiber growth assay (assay method 2); conditions: for inhibition of nerve fiber growth of human NTera cells: peptide concentration 30 μg/ml (higher concentration); for activity of RGM A peptides in NTera growth assay: FIG. 6A and 6B; for activity in NTera nerve fiber growth assay: peptide concentration 10 μg/ml (FIG. 6B)
Protocol: The human pluripotent carcinoma cell line Ntera (DSMZ ACC527) is an established cell culture model. In this case, axons grow out of cell aggregates and form a corona of axons around the respective aggregate.
For this purpose, 2.5×10^6 Ntera cells were seeded in a 175 cm^2 bottle and differentiated in 10 μM retinoic acid (Sigma) (medium: D-MEM (Gibco/Invitrogen 31966-021), 10% fetal calf serum, 100 u/ml penicillin, 100 μg/ml streptomycin (both Gibco/Invitrogen)) for 3 weeks. Differentiated cells were then divided 1:6 in new bottles and cultured without retinoic acid for a further 2 days. Neuronal cells adhering to the resulting cell lawn were detached by capping and aggregated by slow shaking in Neurobasal medium (Neurobasal Medium (Gibco/Invitrogen 21103-049), 2 mM L-glutamine (Gibco/Invitrogen 25030-024), 100 u/ml penicillin, 100 μg/ml streptomycin (both Gibco/Invitrogen) in a shaken flask overnight (in an incubator).
The next day, Ntera aggregates were seeded in poly-D-lysine and laminin (Sigma) (10 μg/ml) 96-well plates (Biocoat Poly-D-Lysine Cellware 96-Well Black/Clear Plate (Becton Dickinson #35 6640). The inhibitory effect of RGM peptides and fragments was analyzed by adding various concentrations of the substances to be tested.

[1] = tested on: Neogenin-expressing HEK293 cells; experiment: Fragment analysis with neogenin-expressing HEK293 cells (semiquantitative dot-blot of producing clones); conditions: stably transfected HEK293 clones
From the text: It was previously known that the active, growth-inhibiting activity of the RGM A protein from chickens is located in the region between amino acid position 150 and 350.
Fragments of the human RGM A protein which cover this range were therefore prepared. HEK293 cells which carry the RGM receptor endogenously on their surface were then transfected with these fragments in order to prepare clonal cell cultures which produce the individual protein fragments and release them into the culture medium. All the fragments were produced as fusion proteins with attached alkaline phosphatase enzyme. The presence of the active domain in these cells should make itself noticeable by: less cellular proliferation, increased cell death and/or altered cell-substrate adhesion.
Increased cell death and less proliferation have, of course, a direct effect on the produced amount of the active fragment. The amount of the produced fragments was assessed with the aid of a semiquantitative dot-blot assay.
The RGM A fragments prepared as in preparation example 1 were introduced into HEK293 cells. […]
In addition, the ratio of strongly to non-producing clones was determined.

rat cortical neurons = experiment: Neuronal outgrowth test with rat cortical neurons (assay method 1)
Protocol: The effect of RGM peptides in vitro was investigated by carrying out neuronal outgrowth tests. For this purpose, rat cortical neurons were prepared using the following media:
Cortical neurons were obtained by sacrificing pregnant rats by cervical dislocation, opening the abdominal cavity thereof, removing the uterus with the embryos (embryonic day 18 (E18)) and washing in PBS. Microdissection scissors were used to cut open the uterus longitudinally, and the embryos were removed and exposed. The embryos were sacrificed by throat-cutting, the brain was removed and the forebrain cortex was dissected. […] The cells were counted in a Neubauer counting chamber, and the number of cells was adjusted to about 400 000 cells/0.2 ml in MM and preaggregated. […] 24-48 h later, the axonal outgrowths were initially assessed by examination under a light microscope, and the cultures were then fixed by adding 100 μl of 4% paraformaldehyde solution and stored at 4° C. for at least 12 hours. […] The fluorescence-labeled secondary antibody (Jackson ImmunoResearch, Cy3 conjugated Affinity Pure Donkey Anti Mouse #715-165-151) was diluted 1:500 in 1% bovine serum albumin solution in PBS, which additionally comprised 0.5 μg/ml bisbenzimide (H33258) to visualize the cell nuclei, and 50 μl of this dilution were incubated per well at room temperature for 1-2 h or at 4° C. overnight. […]

| Substance | inhibition of nerve fiber growth of human NTera cells (human Ntera nerve cells) | activity of RGM A peptides in NTera growth assay (human Ntera nerve cells; overall result) | activity in NTera nerve fiber growth assay (human Ntera nerve cells) | also measured |
| --- | --- | --- | --- | --- |
| Fragment 5: human RGM A fragment amino acids 369-422, expressed in HEK293 as AP fusion protein (PVEDLYYQACVFDLLTTGDVNFTLAAYYALEDVKMLHSNKDKLHLYERTRDLPG; also: alkaline phosphatase fusion; UniProt Q96B86 369-422, looked up, fragment) |  |  |  | activity (inhibitory for axon growth) of RGM A fragments in NTera outgrowth assay (human Ntera nerve cells; stated concentrations (FIG. 5B), overall result): inactive; Proportion of strongly producing cell clones [1]: 16%; Ratio "S producer" versus "0 producer" ([1]; low value = active fragment): 0.63 |
| Peptide 4: synthetic RGM A peptide AA 378-400 of SEQ ID NO: 2 (CVFDLLTTGDVNFTLAAYYALED; listed as Homo sapiens) | not |  |  | activity on nerve fiber growth of cortical neurons (axon growth index) (rat cortical neurons; concentrations 0 to 30 μg/ml (FIG. 3C)): no activity; influence on nerve fiber growth of rat neuronal cells (rat cortical neurons; peptide concentration 10 μg/ml, fluorescence micrographs (FIG. 3A)): inactive |
| Peptide 5-Ak: RGM A peptide 242-259, AFVDGSKNGGDKHGANSL (SEQ ID NO: 30) |  | Inactive or only weakly active | inactive |  |
| Peptide 6-Ak: RGM A peptide 300-316, VVNAVEDWDSQGLYLC (SEQ ID NO: 28) | distinct trend in the direction of inhibition of nerve fiber growth; also recorded: tendency to inhibit growth | Inactive or only weakly active | inactive |  |
| Peptide 7-Ak: RGM A peptide 217-234, TIIFKNFQECVDQKVYQA (SEQ ID NO: 29) | distinct trend in the direction of inhibition of nerve fiber growth; also recorded: tendency to inhibit growth | Inactive or only weakly active | inactive |  |
| Peptide Down-1: RGM A peptide 260-275, KITEKVSGQHVEIQAK (SEQ ID NO: 26) | inhibited nerve fiber growth highly significantly | large reduction in nerve fiber growth |  |  |
| Peptide Up-1: RGM A peptide 276-291, YIGTTIVVRQVGRYLT (SEQ ID NO: 27) | inhibited nerve fiber growth highly significantly | large reduction in nerve fiber growth |  |  |
